Measured values taken from patent US7728034B2, “Treating neurological disorders using selective antagonists of persistent sodium current” (Allergan, Inc., priority 2003, dated 2010).

What was measured:
[1] = target: T1, HEK cells expressing Nav1.3 (HEK-Nav1.3) (Homo sapiens, UniProt Q9NY46); experiment: High-throughput VIPR FRET assay of persistent sodium current-dependent depolarization with K+ counter-screen; assay type: cell-based; conditions: tetracaine 10 μM, FIG. 2
T1 construct: expressed in transfected cells
T1 sequence (Q9NY46 whole entry): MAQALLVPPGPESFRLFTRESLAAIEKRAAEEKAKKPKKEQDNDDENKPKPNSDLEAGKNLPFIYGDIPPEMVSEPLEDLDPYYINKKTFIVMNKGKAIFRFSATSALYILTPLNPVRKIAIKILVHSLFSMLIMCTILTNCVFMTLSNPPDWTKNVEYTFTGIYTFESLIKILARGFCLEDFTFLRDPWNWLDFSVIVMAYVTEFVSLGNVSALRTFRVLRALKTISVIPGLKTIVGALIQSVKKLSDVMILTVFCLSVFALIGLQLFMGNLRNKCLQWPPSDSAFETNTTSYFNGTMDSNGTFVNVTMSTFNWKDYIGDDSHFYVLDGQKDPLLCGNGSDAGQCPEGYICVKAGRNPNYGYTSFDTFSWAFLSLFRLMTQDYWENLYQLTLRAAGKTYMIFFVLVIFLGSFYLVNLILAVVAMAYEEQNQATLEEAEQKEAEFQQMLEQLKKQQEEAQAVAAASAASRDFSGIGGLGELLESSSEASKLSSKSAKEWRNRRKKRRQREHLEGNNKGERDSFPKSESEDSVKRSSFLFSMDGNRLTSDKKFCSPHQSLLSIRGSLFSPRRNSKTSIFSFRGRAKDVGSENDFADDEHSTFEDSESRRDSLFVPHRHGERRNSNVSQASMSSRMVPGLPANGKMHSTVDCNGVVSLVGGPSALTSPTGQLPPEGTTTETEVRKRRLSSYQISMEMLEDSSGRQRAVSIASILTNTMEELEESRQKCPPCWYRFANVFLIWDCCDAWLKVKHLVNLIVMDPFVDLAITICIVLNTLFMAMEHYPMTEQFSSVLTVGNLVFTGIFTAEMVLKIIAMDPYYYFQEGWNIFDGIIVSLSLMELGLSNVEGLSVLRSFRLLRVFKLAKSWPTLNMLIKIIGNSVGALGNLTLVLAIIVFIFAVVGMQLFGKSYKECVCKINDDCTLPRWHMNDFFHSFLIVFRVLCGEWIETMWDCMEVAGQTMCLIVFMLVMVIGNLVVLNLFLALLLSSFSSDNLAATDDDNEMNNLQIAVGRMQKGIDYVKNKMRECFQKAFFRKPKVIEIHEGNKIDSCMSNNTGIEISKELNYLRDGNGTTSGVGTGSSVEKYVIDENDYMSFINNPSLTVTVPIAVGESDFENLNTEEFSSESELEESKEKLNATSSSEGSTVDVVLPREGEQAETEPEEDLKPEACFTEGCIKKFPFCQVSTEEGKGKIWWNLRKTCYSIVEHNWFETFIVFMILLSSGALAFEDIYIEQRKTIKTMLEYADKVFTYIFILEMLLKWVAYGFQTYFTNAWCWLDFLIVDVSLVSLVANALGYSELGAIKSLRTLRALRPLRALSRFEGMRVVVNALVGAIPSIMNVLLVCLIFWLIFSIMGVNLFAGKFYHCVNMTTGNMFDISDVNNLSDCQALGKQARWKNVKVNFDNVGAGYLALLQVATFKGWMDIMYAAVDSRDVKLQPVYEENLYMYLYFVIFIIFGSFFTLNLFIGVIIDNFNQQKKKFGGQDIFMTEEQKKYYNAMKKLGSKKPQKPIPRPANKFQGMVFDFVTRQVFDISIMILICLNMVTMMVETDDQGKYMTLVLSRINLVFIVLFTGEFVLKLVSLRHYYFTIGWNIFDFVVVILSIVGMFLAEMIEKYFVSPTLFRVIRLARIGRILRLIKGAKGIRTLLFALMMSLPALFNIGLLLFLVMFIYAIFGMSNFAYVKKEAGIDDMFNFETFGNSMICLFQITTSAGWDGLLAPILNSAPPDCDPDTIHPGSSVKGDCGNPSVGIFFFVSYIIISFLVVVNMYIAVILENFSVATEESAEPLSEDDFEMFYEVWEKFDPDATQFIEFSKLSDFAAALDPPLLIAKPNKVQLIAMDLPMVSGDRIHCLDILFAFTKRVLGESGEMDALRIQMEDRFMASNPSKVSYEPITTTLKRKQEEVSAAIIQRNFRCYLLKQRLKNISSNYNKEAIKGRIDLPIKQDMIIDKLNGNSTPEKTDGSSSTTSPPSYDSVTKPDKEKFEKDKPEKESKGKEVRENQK

[2] = system: sound-induced seizures in DBA mice; experiment: Audiogenic seizure (AGS) model in DBA/2 mice; assay type: in vivo, mouse
Description: This study examined the anti-seizure efficacy of Compound 1 against to reference compounds (Diazepam and Sipatrigine) using the audiogenic mouse model as the test platform.
DBA mice are well established in the literature as a model for audiogenic seizures (AGS). This genetically based model is attractive for testing potential therapeutics in that no treatment protocol is required to create the condition. It is classified as inherited idiopathic epilepsy with no known associated organic disease.
The AGS response in these mice consists of a progressive sequence of behaviors. The latency to onset may vary from 2 to 15 seconds, and is age variant. The initial wild running phase may be divided into an early running phase that varies from 5 tp 20 seconds, followed by a wild running phase that continues for 10-20 seconds. Wild running may progress to tonic/clonic seizures, with loss of righting ability, respiratory suppression and death.
We a scoring system to quantify the effects of the test compounds on the induction of seizures. The behavioral sequence was assigned ascending numerical values (Table 1), and the highest numerical value reached by an animal was that animal's score.
Animals. Male DBA/2 mice were obtained from Jackson Laboratories at 21 day post partum. The animals were acclimated for 1 or 2 days prior to use. Individual animal weights were recorded immediately before treatment. Surviving animals were euthanized within three days of completion of testing.
Seizure Induction. Mice were placed in a test chamber (25 cm i.d.) and exposed to pure tone sound of 11 kHz at a minimum of 116 dB for approximately 60 s until a sequential seizure response, consisting of an early wild running phase, followed by generalized myoclonus and tonic flexion and extension, was obtained. Non-responders were challenged up to five times. Ten animals were obtained by this method for each intended treatment group, with a standard deviation in their maximum score of less than 25%. The acoustic stimulus signal was produced using a signal generator and projected via four high-frequency ceramic speakers mounted on the roof of the chamber. Chamber calibration was performed daily to ensure consistent sound pressure. AGS behaviors were videotaped for later analysis.
I.P. injections: The 10 animals in each treatment group were injected intra-peritoneally with the test drug in a volume of 10 mL/kg of body weight. Injections were 60 min prior to sound challenge.
Data analyses: Data were tested for normal distribution, and (when normal) were analyzed using ANOVA followed by Student's t test. When the data were not normally distributed, analysis was with the Mann-Whitney rank sum test. Significance was set at p<0.05.

[3] = Estimated plasma concentration after i.p. dosing in the AGS study; assay type: in vivo; conditions: DBA, mouse, intraperitoneal, 1 mg/kg i.p., 60 minutes after dosing
[4] = DBA mice, 60 minutes after dosing, Compound 1 1 mg/kg, references at predicted doses
[5] = DBA/2 mice, i.p. 60 min before sound challenge, scale 1-8, Diazepam 0.15, Sipatrigine 3, Compound 1 1 mg/kg, control 4.8 ± 1.9

Structure (SMILES): CCCCNc1ccc(C(=O)OCCN(C)C)cc1 [Tetracaine]
- K+-dependent change in Rf/Ri (depolarization, counter-screen) [1]: not
- Na+-dependent change in Rf/Ri (depolarization) [1]: inhibited

Structure (SMILES): CN1CCN(c2ncc(-c3cc(Cl)cc(Cl)c3Cl)c(N)n2)CC1 [Sipatrigine]
- behavioral/seizure response to sound-induced seizures [2, 4]: effective
- Seizure score (AGS), Mean ± s.d. [2, 5]: 3.3 ± 1.7

Structure (SMILES): CN1C(=O)CN=C(c2ccccc2)c2cc(Cl)ccc21 [Diazepam]
- Seizure score (AGS), Mean ± s.d. ([2]; mouse, in vivo): 3.1 ± 1.1
- behavioral/seizure response to sound-induced seizures ([2]; mouse, in vivo, 1 mg/kg): effective

Structure (SMILES): O=C(NCCCCc1ccccc1)c1cccs1 [Compound 1, thiophene-2-carboxylic acid (4-phenyl-butyl)-amide]
- concentration at 60 min [3]: ~5 µM
- behavioral/seizure response to sound-induced seizures [2, 4]: significantly reduced
- Seizure score (AGS), Mean ± s.d. [2, 5]: 3.2 ± 2.3
